Article PMC10870044, “The Interplay Between HIF‐1α and EZH2 in Lung Cancer and Dual‐Targeted Drug Therapy” (Advanced Science, 2023)

Experiments:
[1] = system: A549/DR and H460/DR cells; test: CCK-8 cytotoxicity, resistance ratio in dual drug-resistant cells; type: cell-based, Human; conditions: A549/DR and H460/DR vs parental
Protocol: Cells (4 × 10^3per well) were seeded into a 96‐well plate and cultured at 37°C in a 5% CO2 incubator. After 24 h, different concentrations of 2‐ME2 were put into wells which ranged from 0.01 to 100 µM with a minimum of three technical replicates. After 72 h, 10 µl CCK‐8 (MCE, NY, USA) was added to each well and incubated for an additional 4 h at 37°C in a 5% CO2 incubator. Then, […]. The optical density values were measured at 450 nm using a microplate reader (Molecular Devices, San Jose, CA, USA).

A549/DR cells = test: Annexin V-FITC/PI apoptosis assay; type: cell-based, Human; conditions: 48 h exposure
Protocol: (§1) After incubation for 48 h, cells were harvested by centrifugation and washed twice in PBS. Then stained the cells according to the FITC Annexin V Apoptosis Detection Kit II (BD Biosciences, USA). Control cells stained with Annexin‐V or PI alone were used to compensate for flow cytometric analysis. Viable cells were those with both Annexin‐V and PI‐double negative staining. Annexin‐V‐positive and PI‐negative cells were defined as early apoptotic cells, and Annexin‐V and PI‐double‐positive cells were defined as late apoptotic cells.

H460/DR cells = test: Annexin V-FITC/PI apoptosis assay; type: cell-based, Human; conditions: 48 h exposure
Protocol: as §1

multiple myeloma = system: multiple myeloma; set-up: method as in PMID 20499131, PMID 17947482, PMID 16832603, PMID 16197617; conditions: sixty patients with multiple myeloma, phase II study; ref [15], [16], [17], [18]; cited from earlier work
HIF‐1 = test: HIF-1 luciferase reporter gene assay (U251-HRE / U251-PGL3); type: cell-based; conditions: hypoxic environments, compared to the control group
Protocol: HIF‐1 activity was assessed in U251‐HRE and U251‐PGL3 using a 96‐well format. Cells were rinsed twice with ice‐cold PBS, lysed with 200 µl of passive lysis buffer (Promega, Wisconsin, USA), and incubated at room temperature for 10 min. Lysates were centrifuged and stored at −80°C until assayed. Luciferase assays were conducted by pipetting 20 µl of cell lysate into each well of a 96‐well plate and analyzed immediately after adding the luciferase reagent (Promega) in a multi‐mode microplate reader (Centro LB960, Berthold, Germany).

[2] = system: A549/2‐ME2 and H460/2‐ME2 cells; test: Epigenetics Compound Library screen in HIF-1 inhibitor-resistant cells; type: cell-based, Human
HIF‐1α = test: Western blot of HIF-1α after EZH2 inhibitors; type: cell-based; conditions: compared to the control group

luciferase activity in U251 (HIF‐1)	Compound	resistance ratio (RI) of the IC50 in drug‐resistant cells compared to the IC50 in parental cells [1]	apoptotic cell population (A549/DR cells)	apoptotic cell population (H460/DR cells)	objective response in patients (multiple myeloma)	sensitivity of resistant cells compared to the parental cells [2]	HIF‐1α protein levels (HIF‐1α)
	COc1cc2c(cc1O)CC[C@@H]1[C@@H]2CC[C@]2(C)[C@@H](O)CC[C@@H]12 [2‐ME2, 2‐methoxy estradiol]	≈ 4	much lower	much lower	no objective response		
promoted luciferase activity	CCN(c1cc(-c2ccc(CN3CCOCC3)cc2)cc(C(=O)NCc2c(C)cc(C)[nH]c2=O)c1C)C1CCOCC1 [EPZ6438]					more sensitive	
	CCN(c1cc(C#CCN2CCOCC2)cc(C(=O)NCc2c(C)cc(C)[nH]c2=O)c1C)[C@H]1CC[C@H](N(C)CCOC)CC1 [EPZ011989]					more sensitive	
promoted luciferase activity	CC[C@H](C)n1cc(C)c2c(C(=O)NCc3c(C)cc(C)[nH]c3=O)cc(-c3ccc(N4CCNCC4)nc3)cc21 [GSK126]	≈ 4	much lower	much lower		more sensitive	significantly higher levels of HIF‐1α protein
